Test results: US20110098177A1, “METHODS AND COMPOSITIONS OF PLANT MICRONUTRIENTS” (NOVUS INTERNATIONAL INC., priority 2006, published 2011)
Entries after “also recorded” stand apart in the source; their conditions may differ. Marks after values point to notes of the source that are not given here.

How the values were obtained:
Assay type in all cases: in vivo
Florida-47 tomato = assay: Marketable yield per plant, greenhouse Fall 2007, tomato; settings: for Marketable yield per plant, Tomato: foliar application at 3 and 7 WAT, rates not separated; for Tomato yield compared with control (in words): foliar applications, P<0.05
Protocol: The following experiments were performed in a green house during the fall of 2007 at GCREC, Balm, University of Florida. Fifteen products, at 3 different application rates were examined. The plot size was 2-gallon pots. Crop set-up, procedures and variables were as follows.
Transplants of ‘Florida-47’ tomato and ‘Aristotle’ bell pepper plants in the 4-true leaf stage (about 6 inches tall) were planted in 2-gal pots on Aug. 27, 2007. Pots were filled with a commercially available planting medium. This medium was selected based on the mineral composition of the products to be applied without providing significant nutritional inputs to the crops. Irrigation was provided with drip lines delivering between 0.50 and 0.33 gal/day/pot for tomato and bell pepper, respectively, and the crops were irrigated three times per day. No foliar pesticides were necessary.
There were four control treatments corresponding to each target micronutrient in which non-Fe, non-Mn, non-Zn or non-Cu pots received all other essential nutrients under non-limiting conditions.
Treatments were applied at three rates (high, medium and low) obtained from the estimated concentration of Zn, Fe, Cu, and Mn foliarly-applied in tomato and bell pepper in field situations (Table 1). Products were weighed and dissolved in 200 ml of deionized water with a non-ionic surfactant and applied to the newly-matured open leaves of each crop at 3 and 7 weeks after transplant (WAT). Treated pots were isolated during application to avoid cross-contamination of other treatments.
Medium nutrient concentration was determined 1 week before treatment. The mineral composition of the medium was 26.8 ppm NH4—N, 49 ppm NO3—N, 15.8 ppm P, 91.2 ppm K, 82.3 ppm Ca, 58.2 ppm Mg, 23.9 ppm Na, 125.6 ppm S, 1.33 ppm Fe, 0.39 ppm Mn, 0.35 ppm Zn, 0.05 pp, Cu, 0.04 ppm B, 0 ppm Mo, 0.73 ppm Al, and 12.1 ppm Si. The pH of the medium was 5.36 and the electric conductivity was 1.38 mS/cm. The foliar tissue analysis was performed at 6 WAT and the concentration of N, P, K, Mg, Ca, S, B, Zn, Mn, Fe, and Cu was determined by a commercial laboratory. Plant toxicity was determined at 4 WAT by using a 0-10 visual scale, where 0=no visible damage and 10=total plant death. Marketable fruit weight was collected 2 times in bell pepper and 4 times in tomato following USDA standards.
Data were analyzed using a general linear model, and means were separated using orthogonal contrasts at the 5% significance level.

Tygress tomato plants [1] = assay: Marketable yield, open-field tomato (Examples 7-10); settings: open field; for Marketable yield, Tomato: lb/acre/season: BIOX-Z 1.3, Cu 6.7, M 23.0, Fe 3.2, INC 4.0, INZ 0.6, CM 10.0, GZ 1.0, GF 4.0, EDZ 1.4, EDM 23.0
Procedure, shortened: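 Open-field Florida trial, spring 2008: transplants at 4-true-leaf stage on drip-irrigated raised beds were foliar-sprayed at 3 and 5 WAT (BIOX-CM at 4 and 5 WAT) at 60 gal/acre with non-ionic surfactant. Most recent mature leaves were sampled at 6 WAT. Tomato fruit was USDA-graded and analysed for minerals.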

Tygress tomato plants [2] = assay: Yields of tomato fruits, greenhouse (Examples 4-6); settings: for Marketable yield: tomato fruits
Procedure, shortened: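 Tygress tomato in 2-gallon pots of micronutrient-poor medium (negligible Fe, Zn, Mn, Cu) in greenhouse; foliar treatments at 5 WAT in 200 mL/plant water with non-ionic surfactant. Newest non-applied leaves analysed 2 weeks before and after treatment; marketable fruit harvested three times from 10 WAT, graded. RCBD, 6 replications, LSD 5%.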

Row | Compound | Marketable yield per plant, Tomato (Florida-47 tomato) | Tomato yield compared with control (in words) (Florida-47 tomato) | Tomato marketable yield compared to control, statement (Tygress tomato plants [1]) | Marketable yield, Tomato (Tygress tomato plants [1]) | Marketable tomato yield compared with non-treated control (in words) (Tygress tomato plants [2]; BIOX-M at 1.23 lb/acre or more, BIOX-EDM at 2.0 lb/acre, Mn-sulfate at 1.0 lb/acre) | Marketable yield (Tygress tomato plants [2]; Mn 0.31 lb/acre) | Marketable yield (Tygress tomato plants [2]; Mn 0.62 lb/acre) | Marketable yield (Tygress tomato plants [2]; Mn 1.23 lb/acre) | Marketable yield (Tygress tomato plants [2]; Mn 2.46 lb/acre) | Marketable yields compared with the other Zn formulations (in words) (Tygress tomato plants [2]; BIOX-Z at a concentration higher than 0.1 lb/acre) | Marketable yield (Tygress tomato plants [2]; Zn 0.1 lb/acre) | Marketable yield (Tygress tomato plants [2]; Zn 0.2 lb/acre) | Marketable yield (Tygress tomato plants [2]; Zn 0.4 lb/acre) | Marketable yield (Tygress tomato plants [2]; Zn 0.8 lb/acre)
1 | CSCCC(O)C(=O)[O-].CSCCC(O)C(=O)[O-].[Cu+2] (stereo not drawn) [BIOX-Cu, Cu-HMTBA] | 5.5* lb/plant | significantly increased | significantly increased tomato marketable yields relative to control; also recorded: significantly higher marketable yield of tomato fruits compared to control | 19.2 a ton/acre |  |  |  |  |  |  |  |  |  | 
2 | CSCCC(O)C(=O)[O-].CSCCC(O)C(=O)[O-].[Mn+2] (stereo not drawn) [BIOX-M, Mn-HMTBA] | 5.8* lb/plant | significantly increased | significantly higher marketable yield of tomato fruits; also recorded: higher marketable yield of tomato fruits compared to control | 18.1 a ton/acre | significantly higher than the non-treated control | 2.2 b lb/plant | 2.1 b lb/plant | 4.2 a lb/plant | 4.3 a lb/plant |  |  |  |  | 
3 | CSCCC(O)C(=O)[O-].CSCCC(O)C(=O)[O-].[Zn+2] (stereo not drawn) [BIOX-Z, Zn-HMTBA] | 2.9* lb/plant | significantly increased | significantly higher than the control tomato harvest; also recorded: higher marketable yield compared to control | 17.5 ton/acre |  |  |  |  |  | statistically similar to the other Zn supplementation treatment formulations | 2.3 b lb/plant | 3.7 a lb/plant | 3.9 a lb/plant | 3.8 a lb/plant
4 | EDTA chelated zinc [BIOX-EDZ] |  |  | significantly higher than the control tomato harvest | 16.2 ton/acre |  |  |  |  |  |  |  |  | 3.5 a lb/plant | 
5 | Fe-HMTBA [BIOX-Fe] |  |  | significantly higher tomato marketable yield compared to control | 17.8 a ton/acre |  |  |  |  |  |  |  |  |  | 
